Paper PMC9727064, “Performance assessment and economic analysis of a human Liver-Chip for predictive toxicology” (Communications Medicine, 2022)
Structures can show the parent of a compound that is named as a salt. Where two headings read alike, the source gives them in different places.

Legend:
[1] = system: human Liver-Chip (primary human hepatocytes); experiment: Liver-Chip albumin production in top channel effluent (ELISA); type: cell-based; details: expanded drug list; lowest multiplier causing a 50% reduction in albumin production; donor 1
Excerpt: (§1) Cycles 1 to 4 tested 6–8 concentrations in duplicate for each of 10–13 drugs. To determine which sampling strategy was optimal for cycles 1 to 4 (16 doses × 1 replicate, 8 × 2, 5 × 3, or 4 × 4), we generated three different “dose-response” synthetic datasets, each distorted by different noise levels (low, medium, or high). For each of these datasets, we performed curve-fitting analyses and calculated the Root Mean Square Error between the “true” and estimated IC50 parameter. […] Some drugs were also repeated across cycles (on different donors or at different concentrations) to ensure experimental robustness. However, to replicate a more typical study design likely to be carried out by scientists in the pharmaceutical industry, we created cycle 5 with 6 drugs, where each was tested in 4 concentrations in triplicate. For each cycle, chips were dosed with drug over 8 days (referred to as Day 0 through Day 7).
(§2) The drug dosing concentrations were determined from the unbound human Cmax of each drug. First, the expected fraction of drug unbound in media with 2% FBS was extrapolated from plasma binding data for each drug. Dosing concentrations were then back calculated such that the unbound fraction in media would reflect relevant multiples of unbound human Cmax (Supplementary Data 1).
(§3) On the first dosing day (Day 0), all chips were imaged using the ECHO microscope. Five hundred microliters of effluent was collected from all four reservoirs of the pod and placed in a labeled 96-well plate. After collection, all the remaining media was carefully aspirated before dosing with 3.8 mL of corresponding dosing solution. Dosing occurred on study days 0, 2, and 4 for chips flowing at 30 µL/h, and on days 0, 1, 2, 3, 4, 5, and 6 for chips flowing at 150 µL/h. Effluent collection occurred on days 1, 3, and 7.
(§4) Top channel outlet effluents were analyzed to quantify albumin and alanine transaminase (ALT) levels on days 1, 3, and 7 using sandwich ELISA kits (Abcam, Albumin ab179887, ALT ab234578) according to vendor-provided protocols. Frozen (−80 °C) effluent samples were thawed overnight at 4 °C prior to assay. The Hamilton Vantage liquid handling platform was used to manage effluent dilutions (1:500 for albumin, neat for ALT), preparation of standard curves, and addition of antibody cocktail. Absorbance at 450 nm was measured using the SynergyNeo Microplate Reader (BioTek).
All statistical analyses were conducted in R[21] (version 4.1.2) and figures were produced using the R package ggplot2[22] (version 3.3.5). The dose-response analysis (Fig. 4) was carried out using the popular drc R package developed by Ritz et al.[23] using the generalized log-logistic dose-response model. The error bars in Figs. 3 and 4, correspond to the standard errors of the mean. The circles in Fig. 3 correspond to the samples used to calculate the corresponding statistics. The analysis of significance in Fig. 3 was performed using paired t-test across different days (same donor) and unpaired t-test across different donors (same day). In Fig. 3 the number of samples used were n = 3 for donor two, and n = 4 for donor three. For both donors, the number of the freshly thawed hepatocyte samples used to estimate the corresponding log2(Fold Change) were n = 4. Finally, the analysis of significance in Fig. 3 was performed using paired t-test.

[2] = cited from earlier work
[3] = system: human Liver-Chip (primary human hepatocytes); experiment: Liver-Chip alanine transaminase (ALT) release in top channel effluent (ELISA); type: cell-based
Excerpt: as §1, §2, §3, §4

[4] = system: human Liver-Chip (hepatocytes and non-parenchymal cells); details: for Morphology Donor 1: human
Protocol: At least four to six brightfield images were acquired per chip for morphology analysis. […] Brightfield images were acquired across three fields of view on days 1, 3, and 7 for each cycle. Cytotoxicity classification was performed while acquiring images for both NPCs and hepatocytes. Images were then scored zero to four by blinded individuals (n = 2) based on severity of agglomeration of cell debris for both channels. The scoring matrix and representative images have been included in the supplement (Supplementary Fig. 1).
Hepatocyte layer on Chips
Non-parenchymal cell layer on Chips
Supplementary Figure 1. (a) Representative brightfield images to depict the cellular morphology score in the top channel of the Liver-Chip which contains hepatocytes. A score of 0 represents no hepatotoxicity detected, which is defined by 95-100% healthy hepatocyte morphology, hexagonal shape containing binucleated cells, clear cell cytoplasm, distinctive cell junctions and less than 5% dead cells. A score of 1 […]
cells. A score of 2 represents mild hepatotoxicity with > 70% monolayer of hepatocytes visible, evidence that cells have begun to lose their distinct cell junctions, many cells contain a granulated cytoplasm but < 30% are dead cells. A score of 3 represents moderate hepatotoxicity with severe granulation of cytoplasm and most of the cells have lost their junctions. Approximately 50% of the cells are considered dead. A score of 4 represents severe hepatotoxicity with agglomeration of cell debris and > 50% of the cells are considered dead. The pores on the membrane become visible as there is no longer a cellular monolayer. (b) Representative brightfield images to depict the cellular morphology score in the bottom channel of the Liver-Chip which contains non-parenchymal cells. A score of 0 represents no cytotoxicity detected, with an intact monolayer and <1% of the cells are dead. A score of 1 represents at least 90% of the monolayer is present and there are <10% dead cells. A score of 2 represents mild cytotoxicity with > 80% of the monolayer present and < 20% are dead cells. A score of 3 represents moderate cytotoxicity with > 50% of the monolayer present and < 50% are dead cells. A score of 4 represents severe cytotoxicity with > 50% of the cells are considered dead. (bar, 50 μm). […]

[5] = system: human Liver-Chip (hepatocyte layer); experiment: Liver-Chip immunofluorescence imaging (caspase 3/7, TMRM, AdipoRed/LipidTOX); type: cell-based
Protocol: Chips were detached from pods and washed once with PBS. […] Afterwards, chips were washed with PBS and stored at 4 °C until staining. Following fixation, chips corresponding to low, medium, and high concentrations from each group were cut in half with a razor blade perpendicular to the co-culture channels. One half was used in the following staining protocol, while the other half was stored for future staining. All stains and washes utilized the bubble method, in which a small amount of air is flowed through the channel prior to bulk wash media to prevent a liquid-liquid dilution of the staining solution. […] Following 15 minutes of incubation at room temperature, each channel was washed with 200 µL of PBS (alternating channels, 2× for top and 3× for bottom). As an alternative lipid accumulation marker, 100 µL of HCS LipidTOX Deep Red (ThermoFisher, H34477) was diluted 1:1000 v/v in PBS with NucBlue counterstain and added to the top channel. After a 30 min incubation at room temperature, the chips were again allowed to reach room temperature before the channels were alternatively washed with 200 µL of PBS, the bottom channel undergoing three washes and the top channel undergoing two. Chips were then imaged using the Opera Phenix. Following lipid and DAPI staining and imaging, chips were stained with a […] (MRP2) antibody to visualize the bile canalicular structures characteristic of healthy Liver-Chips. […] Then, each channel was washed with 200 µL of PBS (alternating channels, 2× for top and 3× for bottom). […] Next, primary antibody Mouse anti-MRP2 (Abcam, ab3373) was prepared 1:100 in the original blocking buffer, diluted 1:4 in PBS. 100 µL of solution was added to each channel, and chips were stored overnight at 4 °C. The following day, each channel was washed with 200 µL of PBS (alternating channels, 2× for top and 3× for bottom). […] 100 µL of solution was added to each channel and chips incubated at room temperature, protected from light, for two hours. Then, each channel was washed with 200 µL of PBS (alternating channels, 2× for top and 3× for bottom). Chips were imaged immediately or stored at 4 °C until ready for imaging on the Opera Phenix. Chip replicates designated for live cell imaging were washed with PBS utilizing the bubble method. Chips were then cut in half perpendicular to the co-culture channels. […] The bottom chips halves were stained with NucBlue (Thermo) to visualize nuclei and Tetramethylrhodamine, methyl ester (TMRM) (ThermoFisher, I34361) to visualize active mitochondria. This staining panel was prepared in PBS with 5% FBS, with NucBlue at 2 drops per mL and TMRM at a 1:1000 ratio in original blocking buffer, diluted 1:4 in PBS. Chips were incubated in the dark at 37 °C for 30 min, and then each channel was washed with 200 µL of PBS (alternating channels, 2× for top and 3× for bottom). The chips were kept at 37 °C, protected from light, until ready for imaging with the Opera Phenix. Fluorescent confocal image acquisition was performed using the Opera Phenix High-Content Screening System and Harmony 4.9 Imaging and Analysis Software (PerkinElmer). Before acquisition, the Phenix internal environment was set to 37 °C and 5% CO2. […] Whole chips were placed directly into each slot, while top and bottom half chips were matched and combined in one chip slot. Chips were aligned flush with the adapter and one another. Any bubbles identified from visual inspection were washed out with PBS. Once ready, the stained chips were covered with transparent plate film to seal channel ports and loaded into the Phenix. […] Z-stacks were generated with 3.6 µm between slices for 28–32 planes so that the epithelium was located around the center of the stack. […] Raw images from fixed and live imaging were exported in TIFF format from the Harmony software. Using scripts written for FIJI (ImageJ), TIFFs across three color channels and multiple z-stacks were compiled into composite images for each field of view in each chip. […]

human Liver-Chip = experiment: Liver-Chip DILI prediction: minimum toxic concentration and margin of safety (MOS)-like figure; details: free IC50 concentration in the assay divided by total concentration of drug in human plasma at Cmax;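 note: Toxic concentration is the lowest across albumin IC50 and ALT and morphology endpoints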
Excerpt: Because the fundamental principles of drug action dictate that free (unbound) drug concentrations drive drug effects, we explored an alternative methodology for calculating the MOS-like values by accounting for protein binding using a previously reported approach. Accordingly, we reanalyzed the findings for the 27 drugs in our study by accounting for protein binding.

[6] = system: 3D spheroid cultures of primary human hepatocytes; details: cited from earlier work
[7] = system: clinical drug-induced liver injury; details: clinical DILI severity category 1 to 5; cited from earlier work
[8] = plasma, cited from earlier work
[9] = human, total plasma Cmax, ref Proctor, W.R. et al. (29)

## C[C@]12CC[C@@H]3c4ccc(O)cc4CC[C@H]3[C@@H]1CC[C@@H]2O [Beta-Estradiol]
[1]
  Albumin IC50 Donor 1: >300 unbound human Cmax multiplier
[2]; human, total plasma Cmax, ref Sivapalasingam, S. & Steigbigel, N. H. (67)
  Human Cmax Total: 0.0006 µM

## O=C1CC2(CCCC2)CC(=O)N1CCCCN1CCN(c2ncccn2)CC1 [Buspirone]
[3]; lowest concentration causing an increase in ALT protein
  ALT Donor 1: > 300 multiples of the unbound human Cmax
[4]
  Morphology Donor 1: >300 multiples of the unbound human Cmax
[5]; matched pair analysis
  IF imaging Donor 1: Apoptosis
Human Liver-Chip
  Chip MOS donor 1: >15
[2]; [9]
  Human Cmax Total: 0.009 µM
[6]; 3D hepatic spheroids, previously published data
  Spheroid MOS: 16,300
[6]; Yes/No, also No for drugs not tested in spheroid
  Spheroid false negative: No
[7]
  Garside DILI rank: 4

## CN(C)CCC(c1ccc(Cl)cc1)c1ccccn1 (stereo not shown) [Chlorpheniramine maleate]
[2]; [9]
  Human Cmax Total: 0.04 µM

## CN(C)CCC(c1ccc(Cl)cc1)c1ccccn1 (stereo not shown) [Chlorpheniramine]
Human Liver-Chip
  Chip MOS donor 1: >200
[7]
  Garside DILI rank: 3

## CN1CCN(C2=Nc3cc(Cl)ccc3Nc3ccccc32)CC1 [Clozapine]
Human Liver-Chip; both donors
  Chip MOS both donors: 1.8
Human Liver-Chip
  Chip MOS donor 1: 1.8
Human Liver-Chip; donor 2
  Chip MOS donor 2: 5
[2]; [9]
  Human Cmax Total: 2.4 µM
[8]; ref Lau, S.W.J. (65)
  Expected Fraction Unbound in Plasma: 0.055

## O=C(O)Cc1ccccc1Nc1c(Cl)cccc1Cl [Diclofenac sodium]
[2]; [9]
  Human Cmax Total: 10.1 µM
[8]; ref Lau, S.W.J. (65)
  Expected Fraction Unbound in Plasma: 0.005

## O=C(O)Cc1ccccc1Nc1c(Cl)cccc1Cl [Diclofenac]
[3]; Liver-Chip effluent
  ALT change in words: no elevation of ALT
[3]; expanded drug list, lowest concentration causing an increase in ALT release
  ALT Donor 1: > 1000 unbound human Cmax multiplier
[4]
  Morphological injury score change in words: concentration and time-dependent changes
  Morphology Donor 1: 1000 unbound human Cmax multiplier
[5]; caspase 3/7 (apoptosis) or TMRM (mitotoxicity), 7 days
  Immunofluorescence staining result in words: apoptosis-mediated cell death
[5]; day 7 post-drug administration, hepatocyte layer, top channel, donor one
  Immunofluorescent findings, donor one (Supplementary Figure 3): Apoptosis
[5]; expanded drug list
  IF imaging Donor 1: Apoptosis
Human Liver-Chip
  Chip MOS donor 1: 1.8
[6]
  Spheroid MOS: 6.1

## CCc1nn(CCCN2CCN(c3cccc(Cl)c3)CC2)c(=O)n1CCOc1ccccc1 [Nefazodone hydrochloride]
[2]; [9]
  Human Cmax Total: 4.3 µM

## Cc1cc2c(cc1CC(=O)c1sccc1S(=O)(=O)[N-]c1onc(C)c1Cl)OCO2.[Na+] [Sitax(s)entan sodium salt]
[2]; human, total plasma Cmax, ref National Center for Biotechnology Information (73)
  Human Cmax Total: 28.6 µM
[8]; reference data from the literature, no reference
  Expected Fraction Unbound in Plasma: 0.01

## N[C@@H]1[C@H]2CN(c3nc4c(cc3F)c(=O)c(C(=O)O)cn4-c3ccc(F)cc3F)C[C@@H]12 [Trovafloxacin mesylate]
[2]; human therapeutic total plasma Cmax from literature, ref Xu, J. J. et al. (36)
  Human Cmax Total: 5 µM
[2]; human, total plasma Cmax, ref Xu, J. J. et al. (36)
  Human Cmax Total: 5 µM
